Laboratory results as given in patent US7009053B2, “Quinoline derivatives as caspase-3 inhibitor, preparation for producing the same and pharmaceutical composition comprising the same” (Yungjin Pharmaceuticals Co., Ltd., priority 2002, dated 2006).
Read-outs that look alike come from different tables or passages of the source.

Assays:
Format in all cases: biochemical
[1] = molecular target: T1, human recombinant caspase-3 enzyme (Homo sapiens, UniProt P42574); test: Enzyme assay of caspase-3 inhibition (fluorogenic Ac-DEVD-AFC substrate); settings: for inhibition at 20 µM: caspase-3 activity
T1 construct: each cDNA encoding p12 and p17 subunits of caspase-3 was PCR-amplified respectively and subcloned into a pET3-a expression vector; made in house; host or cells: E. coli BL21 (DE3), pET3-a vector
T1 sequence (P42574 29-175 limits assumed): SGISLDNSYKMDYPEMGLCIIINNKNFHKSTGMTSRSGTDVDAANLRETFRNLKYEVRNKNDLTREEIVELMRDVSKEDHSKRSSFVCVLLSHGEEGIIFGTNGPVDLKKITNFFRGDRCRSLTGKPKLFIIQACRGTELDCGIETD
T1 sequence (P42574 176-277 limits assumed): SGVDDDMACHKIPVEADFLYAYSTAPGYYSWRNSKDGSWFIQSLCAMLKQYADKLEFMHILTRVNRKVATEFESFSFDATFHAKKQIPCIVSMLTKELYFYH
Description: The active form of human recombinant caspase-3 enzyme was prepared from Escherichia coli (E.coli) heterologous expression system as described previously (Rotonda J. et al., Nat Struct Biol 3(7): 617–25, 1996). Briefly, each cDNA encoding p12 and p17 subunits of caspase-3 was PCR-amplified respectively and subcloned into a pET3-a expression vector (Novagen), which was followed by transfection into E. coli strain BL21 (DE3). The bacterial cultures (0.5 liters for each transfectant) were grown at 37° C. until logarithmic phase of cell growth and isopropyl-1-thio-β-D-galactopyranoside (IPTC) (Pharmacia) was then added to a final concentration of 0.5 mM. After 3 hr of incubation, the bacteria were pelleted and lysed in a lysis buffer (20 mM Tris hydrochloride pH 8.0, 1 mM EDTA, 2 mM dithiothreitol (DTT), 100 mM NaCl, 200 ug/ml of lysozyme) through sonication. After centrifugation, the pellets from each transfectants were dissolved in 6 M urea and were mixed and rapidly diluted 50 fold in 100 mM HEPES/KOH (pH 7.5), 10% sucrose, 0.1% CHAPS, 0.5 M NaCl, 10 mM DTT. The concentration of protein was determined with the Bradford method (Bio-Rad), with bovine serum albumin as the standard. To verify whether expected size of proteins were obtained, the cell lysates from each cDNA transfectants were analyzed on 14% SDS PAGE and visualized with Coomassie blue staining.
200 ul of the following assay solution was contained in each well of 96-well plate: 20 mM HEPES/KOH (pH 7.5), 10% sucrose, 10 mM DTT, 0.2 mM EDTA, 0.1% CHAPS, 200 ng of enzymes, and 2.5 uM of the substrate. The fluorogenic substrate […]-Asp-Glu-Val-Asp-7-amino-4-trifluoromethylcoumarin (Ac-DEVD-AFC) was purchased from Sigma (St Louis, Mo.) and dissolved in DMSO as a 2.5 mM stock solution and kept at −20° C. before use.
After 1 hr incubation at 37° C., the release of AFC (7-amino-4-trifluoromethyl-coumarin) was monitored in a fluorometric plate reader (Victor 1420). The excitation and emission wavelengths were 400 nm and 510 nm, respectively. The inhibitory effects of compounds on enzyme activities were determined with 2, 20 or 200 uM concentrations of the test compound run in triplicate tubes, and isotherms from three assays were calculated by computerized nonlinear regression analysis (GraphPad Prism Program, San Diego, Calif.) to yield IC50 values.

Caspase-1 = molecular target: T2, Caspase-1 (Homo sapiens, UniProt P29466); test: Assay of selective inhibitory activity, caspase-1; settings: read-out: IC50 against caspase-1
T2 construct: purchased BIOMOL Research Laboratories Inc; host or cells: E. coli
T2 sequence (P29466 120-297 limits assumed): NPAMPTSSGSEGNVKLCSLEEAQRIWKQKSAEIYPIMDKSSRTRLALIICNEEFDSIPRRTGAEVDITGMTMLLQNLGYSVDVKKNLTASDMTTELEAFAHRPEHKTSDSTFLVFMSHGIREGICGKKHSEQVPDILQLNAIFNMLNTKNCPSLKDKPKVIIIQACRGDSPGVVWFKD
T2 sequence (P29466 317-404 limits assumed): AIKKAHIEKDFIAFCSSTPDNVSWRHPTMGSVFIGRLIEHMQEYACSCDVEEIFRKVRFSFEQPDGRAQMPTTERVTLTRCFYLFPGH
Description: (§1) To investigate the selectivity on caspase enzyme subtypes, the inhibitory effects of the compounds of this invention on several other members of the caspase family, caspase-1, 6, 7 and 8 were evaluated.
(§2) After 1 hr incubation at 37° C., the release of AFC (7-amino-4-trifluoromethyl-coumarin) was monitored in a fluorometric plate reader (Victor 1420). The excitation and emission wavelengths were 400 nm and 510 nm, respectively. Isotherms from three assays were calculated by computerized nonlinear regression analysis (GraphPad Prism Program, San Diego, Calif.) to yield IC50 values. Caspase-1, 6, 7 and 8 were purchased from BIOMOL Research Laboratories Inc. (Plymouth Meeting, Pa., USA).
(§3) Coumarin-based fluorogenic substrates for each enzyme were obtained from Sigma/RBI (St. Louis, Mo., USA). The compound used in the assay was 8-amino-4-(3-morpholine-4-yl-propylamino)-quinoline-3-carboxylic acid ethyl ester. The enzymatic activity of caspase-1, 6, 7 or 8 was determined by the same procedures as for the caspase-3 assay, except for enzyme or substrate (Table 2).

Caspase-6 = molecular target: T3, Caspase-6 (Homo sapiens, UniProt P55212); test: Assay of selective inhibitory activity, caspase-6; settings: read-out: IC50 against caspase-6
T3 construct: purchased BIOMOL Research Laboratories Inc; host or cells: E. coli
T3 sequence (P55212 24-179 limits assumed): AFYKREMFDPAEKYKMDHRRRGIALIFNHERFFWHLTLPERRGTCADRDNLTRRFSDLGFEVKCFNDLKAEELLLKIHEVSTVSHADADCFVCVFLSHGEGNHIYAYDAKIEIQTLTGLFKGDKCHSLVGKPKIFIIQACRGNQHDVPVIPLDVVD
T3 sequence (P55212 194-293 limits assumed): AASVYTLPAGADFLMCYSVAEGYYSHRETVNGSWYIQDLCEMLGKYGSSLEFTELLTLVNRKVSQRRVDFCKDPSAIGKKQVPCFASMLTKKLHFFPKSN
Description: as §1, §2, §3

Caspase-7 = molecular target: T4, Caspase-7 (Homo sapiens, UniProt P55210); test: Assay of selective inhibitory activity, caspase-7; settings: read-out: IC50 against caspase-7
T4 construct: purchased BIOMOL Research Laboratories Inc; host or cells: E. coli
T4 sequence (P55210 24-198 limits assumed): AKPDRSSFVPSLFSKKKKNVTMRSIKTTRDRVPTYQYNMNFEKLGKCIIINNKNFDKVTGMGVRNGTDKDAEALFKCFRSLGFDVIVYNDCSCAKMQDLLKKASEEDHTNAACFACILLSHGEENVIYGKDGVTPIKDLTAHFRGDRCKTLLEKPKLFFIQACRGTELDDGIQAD
T4 sequence (P55210 207-303 limits assumed): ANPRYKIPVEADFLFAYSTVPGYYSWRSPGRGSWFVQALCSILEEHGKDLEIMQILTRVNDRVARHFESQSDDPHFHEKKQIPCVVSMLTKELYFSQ
Description: as §1, §2, §3

Caspase-8 = molecular target: T5, Caspase-8 (Homo sapiens, UniProt Q14790); test: Assay of selective inhibitory activity, caspase-8; settings: read-out: IC50 against caspase-8
T5 construct: purchased BIOMOL Research Laboratories Inc; host or cells: E. coli
T5 sequence (Q14790 217-374 limits assumed): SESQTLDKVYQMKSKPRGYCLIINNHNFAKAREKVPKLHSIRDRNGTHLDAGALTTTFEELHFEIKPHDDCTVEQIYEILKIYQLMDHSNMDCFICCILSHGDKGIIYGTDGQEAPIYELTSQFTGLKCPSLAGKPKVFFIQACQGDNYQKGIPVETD
T5 sequence (Q14790 385-479 limits assumed): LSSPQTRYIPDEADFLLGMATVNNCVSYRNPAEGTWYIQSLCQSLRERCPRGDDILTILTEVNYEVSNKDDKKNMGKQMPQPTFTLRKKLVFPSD
Description: as §1, §2, §3

[2] = caspase-3, Table 1, tested at 2, 20 or 200 uM, read-out: IC50

Row | Compound | IC50 [1, 2] [µM] | inhibition at 20 µM [1] [%] | inhibitory activity against caspase-3 (in words) ([1]; compared to the reference compound) | IC50 ([1]; selectivity study, text b424, read-out: IC50 against caspase-3) [µM] | IC50 (Caspase-1) [µM] | IC50 (Caspase-6) [µM] | IC50 (Caspase-7) [µM] | IC50 (Caspase-8) [µM]
1 | CCOC(=O)c1cnc2c(N)cccc2c1NCCCN1CCOCC1 [Example 22, 8-Amino-4-(3-morpholin-4-yl-propylamino)-quinoline-3-carboxylic acid ethyl ester] | 13.8 | 92.3 | superior activity | 5.6 | ≥ 200 | ≥ 200 | 14.7 | ≥ 200
2 | CCOC(=O)c1cnc2c(N)cccc2c1NCCc1ccccc1N [Example 46, 8-Amino-4-[2-(2-amino-phenyl)-ethylamino]-quinoline-3-carboxylic acid ethyl ester] | 16.2 | 83.8 | – | – | – | – | – | –
